Results taken from US10717716B2, “1,3,4-oxadiazole derivative compounds as histone deacetylase 6 inhibitor, and the pharmaceutical composition comprising the same” (Chong Kun Dang Pharmaceutical Corp., priority 2015, dated 2020).

Legend:
[1] = biological target: T1, human recombinant HDAC1 (Homo sapiens, UniProt Q13547); assay: HDAC1 enzyme activity inhibition assay (HDAC Fluorimetric Drug Discovery Kit); format: biochemical; details: 30° C. 60 minutes
T1 construct: purchased Enzo Life Science BML-SE456
Method in brief: (§1)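 Fluorimetric deacetylase assay: 5-fold serial compound dilutions, 0.3 μg recombinant human enzyme (HDAC1 or HDAC6, same protocol), 10 μM Fluor de Lys-SIRT1 substrate, 60 min at 30 °C. Signal developed 30 min, measured at 360/460 nm; IC50 values derived.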

[2] = biological target: T2, human recombinant HDAC6 (Homo sapiens, UniProt Q9UBN7); assay: HDAC6 enzyme activity inhibition assay (HDAC Fluorimetric Drug Discovery Kit); format: biochemical; details: for HDAC6 selectivity (fold): HDAC6 over HDAC1; for IC50: human recombinant HDAC6, same protocol as HDAC1, read-out: HDAC6
T2 construct: purchased Calbiochem 382180
T2 sequence (Q9UBN7 1-1215): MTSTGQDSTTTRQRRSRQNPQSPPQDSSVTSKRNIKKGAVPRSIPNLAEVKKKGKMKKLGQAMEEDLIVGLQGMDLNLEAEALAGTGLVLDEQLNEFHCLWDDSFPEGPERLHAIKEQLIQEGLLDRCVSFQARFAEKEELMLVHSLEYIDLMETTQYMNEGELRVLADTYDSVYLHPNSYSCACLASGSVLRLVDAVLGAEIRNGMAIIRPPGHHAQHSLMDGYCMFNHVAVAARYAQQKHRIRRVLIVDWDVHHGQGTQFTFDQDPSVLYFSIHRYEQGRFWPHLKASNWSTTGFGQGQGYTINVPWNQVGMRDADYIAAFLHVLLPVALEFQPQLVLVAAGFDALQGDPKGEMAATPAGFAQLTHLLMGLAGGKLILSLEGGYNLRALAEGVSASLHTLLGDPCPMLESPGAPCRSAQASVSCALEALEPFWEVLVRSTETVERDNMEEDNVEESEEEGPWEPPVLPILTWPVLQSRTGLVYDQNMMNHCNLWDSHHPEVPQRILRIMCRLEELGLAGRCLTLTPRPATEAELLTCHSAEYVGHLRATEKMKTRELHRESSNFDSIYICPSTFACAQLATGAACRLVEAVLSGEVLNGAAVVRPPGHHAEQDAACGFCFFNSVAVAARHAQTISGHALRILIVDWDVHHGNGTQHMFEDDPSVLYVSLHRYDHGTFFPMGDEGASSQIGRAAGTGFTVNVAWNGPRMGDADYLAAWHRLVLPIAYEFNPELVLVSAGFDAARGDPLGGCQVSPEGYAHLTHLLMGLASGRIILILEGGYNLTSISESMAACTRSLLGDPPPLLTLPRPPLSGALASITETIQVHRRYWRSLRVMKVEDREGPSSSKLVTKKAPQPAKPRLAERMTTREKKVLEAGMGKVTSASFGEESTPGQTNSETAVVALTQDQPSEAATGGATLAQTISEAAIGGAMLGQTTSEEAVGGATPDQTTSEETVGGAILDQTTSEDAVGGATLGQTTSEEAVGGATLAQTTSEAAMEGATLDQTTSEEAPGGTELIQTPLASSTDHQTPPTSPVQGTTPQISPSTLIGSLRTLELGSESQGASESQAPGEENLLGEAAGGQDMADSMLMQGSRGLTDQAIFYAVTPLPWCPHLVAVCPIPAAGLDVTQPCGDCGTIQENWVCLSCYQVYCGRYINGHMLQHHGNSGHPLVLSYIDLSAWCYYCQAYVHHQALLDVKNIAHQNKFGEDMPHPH
Method in brief: as §1

[3] = human recombinant HDAC1, Fluor de Lys substrate 10 μM
[4] = human recombinant HDAC1, Fluor de Lys substrate

T1 sequence (Q13547 whole entry): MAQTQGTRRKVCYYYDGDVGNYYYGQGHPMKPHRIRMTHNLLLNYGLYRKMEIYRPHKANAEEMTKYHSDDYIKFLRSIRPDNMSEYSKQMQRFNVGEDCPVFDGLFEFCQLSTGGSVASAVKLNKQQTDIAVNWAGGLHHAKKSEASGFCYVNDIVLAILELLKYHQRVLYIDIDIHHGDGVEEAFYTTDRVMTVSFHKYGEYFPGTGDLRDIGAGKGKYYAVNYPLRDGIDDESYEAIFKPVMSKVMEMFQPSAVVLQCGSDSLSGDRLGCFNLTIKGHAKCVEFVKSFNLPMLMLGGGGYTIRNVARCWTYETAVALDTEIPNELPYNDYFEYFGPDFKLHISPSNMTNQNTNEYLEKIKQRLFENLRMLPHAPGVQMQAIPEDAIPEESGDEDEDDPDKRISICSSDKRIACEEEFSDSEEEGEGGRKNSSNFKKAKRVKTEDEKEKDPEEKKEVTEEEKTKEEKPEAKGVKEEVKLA

| Structure (SMILES) | IC50 [1, 3] [µM] | HDAC6 selectivity (fold) [2] [fold] | IC50 [2] [µM] | IC50 [1, 4] [µM] |
| --- | --- | --- | --- | --- |
| O=C(N1CCS(=O)(=O)CC1)N(Cc1ccc(-c2nnc(C(F)(F)F)o2)cc1F)c1ccc(CN2CCN(C3COC3)CC2)cc1 [Compound 21898, N-(2-fluoro-4-(5-(trifluoromethyl)-1,3,4-oxadiazol-2-yl)benzyl)-N-(4-((4-(oxetan-3-yl)piperazin-1-yl)methyl)phenyl)thiomorpholine-4-carboxamide 1,1-dioxide] | 40.6 | 164 | 0.247 | – |
| CCN1CCN(Cc2ccc(N(Cc3ccc(-c4nnc(C(F)F)o4)cc3F)C(=O)N3CCS(=O)(=O)CC3)cc2)CC1 [Compound 21899, N-(4-(5-(difluoromethyl)-1,3,4-oxadiazol-2-yl)-2-fluorobenzyl)-N-(4-((4-ethylpiperazin-1-yl)methyl)phenyl)thiomorpholine-4-carboxamide 1,1-dioxide] | 75.7 | 1364 | 0.055 | – |
| O=C(N1CCN(C2COC2)CC1)N(Cc1ccc(-c2nnc(C(F)F)o2)cn1)c1ccccc1 [Compound 21905, N-((5-(5-(Difluoromethyl)-1,3,4-oxadiazol-2-yl)pyridin-2-yl)methyl)-4-(oxetan-3-yl)-N-phenylpiperazine-1-carboxamide] | 56.1 | 1454 | 0.039 | – |
| O=C(N1CCOCC1)N(Cc1ccc(-c2nnc(C(F)(F)F)o2)cc1F)c1ccc(F)c(Cl)c1 [Compound 21930, N-(3-chloro-4-fluorophenyl)-N-(2-fluoro-4-(5-(trifluoromethyl)-1,3,4-oxadiazol-2-yl)benzyl)morpholine-4-carboxamide] | – | 35 | 0.419 | 14.6 |
| O=C(N1CCN(C2COC2)CC1)N(Cc1ccc(-c2nnc(C(F)F)o2)cn1)c1ccc(F)cc1 [Compound 21941, N-((5-(5-(Difluoromethyl)-1,3,4-oxadiazol-2-yl)pyridin-2-yl)methyl)-N-(4-fluorophenyl)-4-(oxetan-3-yl)piperazine-1-carboxamide] | – | 446 | 0.103 | 46 |
| O=C(N1CCN(C2COC2)CC1)N(Cc1ccc(-c2nnc(C(F)F)o2)cc1F)c1cccc(Cl)c1 [Compound 21943, N-(3-Chlorophenyl)-N-(4-(5-(difluoromethyl)-1,3,4-oxadiazol-2-yl)-2-fluorobenzyl)-4-(oxetan-3-yl)piperazine-1-carboxamide] | – | 611 | 0.048 | 29.6 |
| COc1cccc(N(Cc2ccc(-c3nnc(C(F)F)o3)cc2)C(=O)N2CCN(C3COC3)CC2)c1 [Compound 21948, N-(4-(5-(Difluoromethyl)-1,3,4-oxadiazol-2-yl)benzyl)-N-(3-methoxyphenyl)-4-(oxetan-3-yl)piperazine-1-carboxamide] | – | 188 | 0.246 | 46.3 |
| COc1cccc(N(Cc2ccc(-c3nnc(C(F)F)o3)cc2F)C(=O)N2CCN(C3COC3)CC2)c1 [Compound 21949, N-(4-(5-(Difluoromethyl)-1,3,4-oxadiazol-2-yl)-2-fluorobenzyl)-N-(3-methoxyphenyl)-4-(oxetan-3-yl)piperazine-1-carboxamide] | – | 383 | 0.126 | 48.3 |
| O=C(N1CCN(C2COC2)CC1)N(Cc1ccc(-c2nnc(C(F)F)o2)cc1)c1ccccc1 [Compound 21954, N-(4-(5-(Difluoromethyl)-1,3,4-oxadiazol-2-yl)benzyl)-4-(oxetan-3-yl)-N-phenylpiperazine-1-carboxamide] | – | 245 | 0.145 | 35.7 |
| O=C(NCCN1CCS(=O)(=O)CC1)N(Cc1ccc(-c2nnc(C(F)F)o2)cc1F)c1ccccc1 [Compound 21985, 1-(4-(5-(Difluoromethyl)-1,3,4-oxadiazol-2-yl)-2-fluorobenzyl)-3-(2-(1,1-dioxidothiomorpholino)ethyl)-1-phenylurea] | – | 480 | 0.045 | 21.4 |
